Reference: article PMC5690597, “Suppression and resolution of autoimmune arthritis by rhesus θ-defensin-1, an immunomodulatory macrocyclic peptide” (PLoS ONE, 2017)
Bridge positions count the residues as written; N and C are the ends. Peptide text beside a SMILES is read from it.

Tests used:
DA-PIA-FLS = experiment: FLS proliferation (CyQuant); format: cell-based, DA rat; conditions: RTD-1 0–30 μg/ml; 24 or 48 h in culture; DNA staining
Description: Fibroblast-like synoviocytes (FLS) were isolated by enzymatic digestion of the synovial tissue from DA rats with PIA as previously described. Cells were washed and suspended in DMEM supplemented with 10% fetal bovine serum (Gibco, Grand Island, NY), 30 mg/ml L-glutamine (Sigma), 250 μg/ml amphotericin B (Sigma), and […] gentamicin (Gibco). After overnight culture, non-adherent cells were removed and adherent cells were cultured to approximately 70–90% confluence and passaged following detachment with 0.25% trypsin-EDTA for 3 min at 37°C. All experiments were performed with FLS after at least four passages.
All assays were performed with ≥ 7 replicates.

FLS = conditions: RTD-1 0–30 μg/ml; all samples; LDH release
Description: FLS were seeded at 3 × 10^3 cells/well in a 96-well TC treated plate (Greiner). Cells were allowed to adhere for 18 h and medium was replaced prior to addition of peptide or vehicle. RTD-1 was added to wells at final concentrations of 0–30 μg/ml in culture medium and incubated for 0, 24, or 48 h at 37°C in 5% CO2. FLS cell number was determined by DNA staining using CyQuant Cell Proliferation Assay Kit (Invitrogen) per manufacturer’s instructions. Cellular toxicity was determined by measuring the release of lactate dehydrogenase (LDH) using a CytoTox 96 Cytotoxicity Assay (Promega Bio Sciences, San Luis Obispo, CA) in FLS supernatants. All assays were performed with ≥ 7 replicates.

[1] = test system: DA/OlaHsd rats with pristane-induced arthritis; experiment: Pristane-induced arthritis (PIA), established disease (AS ≥ 3); format: in vivo, rat
Description: Female DA/OlaHsd (D blood group allele and Agouti, also known as Dark Agouti), rats were obtained from Harlan Laboratories (Indianapolis, IN). Animals were allowed to acclimate for 48–72 hours prior to experimental use. Animals were fed standard chow ad lib during a 12-hour day/night cycle. PIA was induced in 5–7 week old animals (90–100 gm) by intradermal injection of 250 μl pristane (Sigma) divided into 3–5 sites at the base of the tail. Animals were monitored daily and disease severity of each limb was scored 0–4 using the method of Brand et al.. The severity scores for all limbs of individual animals were totaled to give an individual’s arthritis severity score (AS) ranging from zero for normal animals to maximum disease score of sixteen. […] In three separate trials, treatment was also blinded to scorers. […] Treatment with saline (vehicle), RTD-1, or anti-arthritic agents was randomized and initiated when an animal first presented with an AS of 3 or more. RTD-1 was administered subcutaneously with doses ranging from 0.2 to 5.0 mg/kg in an injection volume of 0.5 ml at intervals ranging from once a day (qd) to once every seven days (q7d). MTX was administered at 0.25 mg/kg by intraperitoneal injection q3d. Etanercept was administered at 0.4 mg/kg by subcutaneous injection q3d.

anti-RTD-1 Ig = experiment: RTD-1 immunogenicity analysis (dot immunoblot); format: in vivo, DA and Sprague Dawley rats; conditions: 8–42 s.c. injections of 5 mg/kg; serum or plasma
Description: Adult DA or Sprague-Dawley rats were challenged s.c. with 5 mg/kg RTD-1 every day (15–42 injections), or every other day (8 injections). Several animals were boosted 2 months later, prior to serum or plasma collection. Immune responses were analyzed by dot blot on nitrocellulose membranes as described in legend to the figure.

joint IL-1β = experiment: Joint tissue cytokine analysis (IL-1β ELISA); format: in vivo, rat; conditions: 5 mg/kg s.c. once a day for four days, PIA rats AS ≥ 3; ELISA of joint extract; P = 0.0054
Description: Saline (control) and RTD-1 (5 mg/kg, s.c., qd) treated PIA rats were euthanized 4 days after disease onset (AS ≥ 3). The ankle joints and feet were snap frozen in liquid N2 and pulverized with mortar and pestle as described. One gram of tissue powder was extracted with 5 ml of ice cold 10 mM sodium phosphate, 150 mM NaCl, pH 7.4 (PBS) containing protease inhibitor tablets (cOmplete ULTRA with EDTA; Roche Diagnostics GmbH, Mannheim, Germany). Samples were vortexed for 30 seconds and extracts clarified by centrifugation. Supernatant IL-1β was quantified by ELISA (Life Technologies, Grand Island, NY).

MMP-13 = MMP-13 (Homo sapiens, UniProt P45452); experiment: biochemical
Description: (§1) Inhibition of MMPs by RTD-1 was performed as described, incubating each enzyme with 0–100 μg/ml of RTD-1. IC50 values were calculated by GraphPad Prism 5.01 (GraphPad Software, San Diego, CA) utilizing a non-linear curve fit of log [inhibitor] versus response with variable slope.

MMP-2 = MMP-2 (Homo sapiens, UniProt P08253); experiment: biochemical
Description: as §1

MMP-14 = MMP-14 (Homo sapiens, UniProt P50281); experiment: biochemical
Description: as §1

MMP-1 = MMP-1 (Homo sapiens, UniProt P03956); experiment: biochemical
Description: as §1

MMP-8 = MMP-8 (Homo sapiens, UniProt P22894); experiment: biochemical
Description: as §1

MMP-9 = MMP-9 (Homo sapiens, UniProt P14780); experiment: biochemical
Description: as §1

MMP-3 = MMP-3 (Homo sapiens, UniProt P08254); experiment: biochemical
Description: as §1

Cathepsin C = Cathepsin C (Homo sapiens, UniProt P53634); experiment: biochemical
Description: (§2) RTD-1 inhibition of Cat B (BPS Bioscience, San Diego, CA) and Cats C, H, K, L, S, and V (R & D Systems) was analyzed in a 96 well format with enzyme-specific substrates per manufacturer’s instructions and as described in Table 1. The activity of each enzyme was determined in the presence of 0 to 50 μg/ml RTD-1.
as §1

Cathepsin B = Cathepsin B (Homo sapiens, UniProt P07858); experiment: biochemical
Description: as §2, §1

Cathepsin V = Cathepsin V (Homo sapiens, UniProt O60911); experiment: biochemical
Description: as §2, §1

Cathepsin S = Cathepsin S (Homo sapiens, UniProt P25774); experiment: biochemical
Description: as §2, §1

Cathepsin K = Cathepsin K (Homo sapiens, UniProt P43235); experiment: biochemical
Description: as §2, §1

Cathepsin H = Cathepsin H (Homo sapiens, UniProt P09668); experiment: biochemical
Description: as §2, §1

Cathepsin L = Cathepsin L (Homo sapiens, UniProt P07711); experiment: biochemical
Description: as §2, §1

Cathepsin K, sequence (P43235 115-329, species assumed): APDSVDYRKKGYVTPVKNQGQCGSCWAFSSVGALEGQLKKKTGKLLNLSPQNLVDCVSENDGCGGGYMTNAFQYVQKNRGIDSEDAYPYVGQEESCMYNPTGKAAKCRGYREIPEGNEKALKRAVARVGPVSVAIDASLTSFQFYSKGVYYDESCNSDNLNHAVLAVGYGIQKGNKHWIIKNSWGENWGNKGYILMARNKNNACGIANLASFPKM
Cathepsin H, sequence (P09668 98-335, species assumed): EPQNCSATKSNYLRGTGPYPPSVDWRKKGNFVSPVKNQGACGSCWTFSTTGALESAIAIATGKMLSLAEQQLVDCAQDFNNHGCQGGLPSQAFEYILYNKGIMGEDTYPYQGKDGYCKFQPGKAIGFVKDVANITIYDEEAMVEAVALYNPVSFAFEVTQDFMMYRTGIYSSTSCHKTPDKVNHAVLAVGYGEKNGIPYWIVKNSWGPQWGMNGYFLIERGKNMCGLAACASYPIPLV
MMP-8, sequence (P22894 101-467, species assumed): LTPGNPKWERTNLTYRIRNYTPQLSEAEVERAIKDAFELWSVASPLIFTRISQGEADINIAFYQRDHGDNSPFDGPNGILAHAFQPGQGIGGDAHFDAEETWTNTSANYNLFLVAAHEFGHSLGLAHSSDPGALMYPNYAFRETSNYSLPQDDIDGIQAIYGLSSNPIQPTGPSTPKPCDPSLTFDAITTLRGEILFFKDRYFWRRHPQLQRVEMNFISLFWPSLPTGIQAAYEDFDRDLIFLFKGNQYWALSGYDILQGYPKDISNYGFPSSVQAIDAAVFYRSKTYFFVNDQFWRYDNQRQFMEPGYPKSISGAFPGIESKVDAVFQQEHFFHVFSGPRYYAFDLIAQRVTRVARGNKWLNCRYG
MMP-2, sequence (P08253 110-660, species assumed): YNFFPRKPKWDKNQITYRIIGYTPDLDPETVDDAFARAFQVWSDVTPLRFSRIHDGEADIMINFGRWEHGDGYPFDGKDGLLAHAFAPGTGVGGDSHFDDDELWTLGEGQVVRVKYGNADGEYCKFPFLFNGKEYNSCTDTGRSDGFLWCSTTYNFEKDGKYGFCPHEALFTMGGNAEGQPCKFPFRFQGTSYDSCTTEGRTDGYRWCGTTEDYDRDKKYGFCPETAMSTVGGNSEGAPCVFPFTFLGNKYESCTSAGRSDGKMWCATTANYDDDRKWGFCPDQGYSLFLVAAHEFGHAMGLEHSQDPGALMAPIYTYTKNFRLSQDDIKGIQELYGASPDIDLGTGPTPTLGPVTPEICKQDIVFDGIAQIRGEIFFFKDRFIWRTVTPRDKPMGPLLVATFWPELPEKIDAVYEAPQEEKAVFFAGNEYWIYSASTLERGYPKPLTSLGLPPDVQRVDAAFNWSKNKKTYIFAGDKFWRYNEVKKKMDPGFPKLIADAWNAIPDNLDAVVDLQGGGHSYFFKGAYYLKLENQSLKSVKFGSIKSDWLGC
MMP-9, sequence (P14780 94-707, species assumed): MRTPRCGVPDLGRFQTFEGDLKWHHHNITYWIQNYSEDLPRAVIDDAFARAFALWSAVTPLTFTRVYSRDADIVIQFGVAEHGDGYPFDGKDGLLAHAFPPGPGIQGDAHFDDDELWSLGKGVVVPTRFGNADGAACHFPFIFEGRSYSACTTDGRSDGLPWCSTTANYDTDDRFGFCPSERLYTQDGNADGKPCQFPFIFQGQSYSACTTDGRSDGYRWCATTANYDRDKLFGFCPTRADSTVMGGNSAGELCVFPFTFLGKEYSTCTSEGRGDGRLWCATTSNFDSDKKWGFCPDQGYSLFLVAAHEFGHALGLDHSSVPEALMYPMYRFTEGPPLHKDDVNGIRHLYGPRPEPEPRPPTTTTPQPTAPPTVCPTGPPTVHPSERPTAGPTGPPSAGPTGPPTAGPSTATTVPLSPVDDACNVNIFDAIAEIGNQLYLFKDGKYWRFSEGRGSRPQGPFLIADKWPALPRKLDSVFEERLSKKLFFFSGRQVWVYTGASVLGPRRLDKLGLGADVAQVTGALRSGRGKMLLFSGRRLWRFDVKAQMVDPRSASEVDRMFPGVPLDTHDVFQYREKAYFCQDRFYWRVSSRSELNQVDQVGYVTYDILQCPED
Cathepsin V, sequence (O60911 114-334): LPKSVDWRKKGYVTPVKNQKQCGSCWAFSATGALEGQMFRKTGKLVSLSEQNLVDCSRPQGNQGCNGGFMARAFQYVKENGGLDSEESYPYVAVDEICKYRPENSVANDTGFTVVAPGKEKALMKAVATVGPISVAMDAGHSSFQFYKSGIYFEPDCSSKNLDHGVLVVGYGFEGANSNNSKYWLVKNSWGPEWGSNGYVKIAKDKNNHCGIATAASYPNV
Cathepsin C, sequence (P53634 25-463, species assumed): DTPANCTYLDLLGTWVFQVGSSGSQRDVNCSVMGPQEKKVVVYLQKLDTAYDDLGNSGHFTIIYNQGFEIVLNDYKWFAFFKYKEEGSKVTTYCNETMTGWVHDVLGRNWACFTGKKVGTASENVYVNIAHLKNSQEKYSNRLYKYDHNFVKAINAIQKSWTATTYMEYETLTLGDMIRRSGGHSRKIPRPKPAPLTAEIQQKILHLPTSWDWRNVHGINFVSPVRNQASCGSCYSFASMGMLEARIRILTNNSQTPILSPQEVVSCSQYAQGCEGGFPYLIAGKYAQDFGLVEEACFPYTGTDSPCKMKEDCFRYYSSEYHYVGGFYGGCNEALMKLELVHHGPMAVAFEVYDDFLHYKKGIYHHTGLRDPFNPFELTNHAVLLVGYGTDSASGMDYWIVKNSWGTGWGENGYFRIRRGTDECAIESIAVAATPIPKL
MMP-3, sequence (P08254 100-477, species assumed): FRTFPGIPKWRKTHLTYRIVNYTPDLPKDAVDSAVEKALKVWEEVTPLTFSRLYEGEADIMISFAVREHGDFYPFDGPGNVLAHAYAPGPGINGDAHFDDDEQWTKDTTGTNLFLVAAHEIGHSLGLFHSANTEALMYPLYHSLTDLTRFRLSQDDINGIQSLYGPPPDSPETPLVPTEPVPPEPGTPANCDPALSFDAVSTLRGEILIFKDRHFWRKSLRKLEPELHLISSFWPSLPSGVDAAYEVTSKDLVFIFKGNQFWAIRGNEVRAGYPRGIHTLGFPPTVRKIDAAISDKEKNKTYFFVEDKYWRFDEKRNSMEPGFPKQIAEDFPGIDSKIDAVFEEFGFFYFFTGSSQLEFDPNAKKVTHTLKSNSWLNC
MMP-1, sequence (P03956 100-469, species assumed): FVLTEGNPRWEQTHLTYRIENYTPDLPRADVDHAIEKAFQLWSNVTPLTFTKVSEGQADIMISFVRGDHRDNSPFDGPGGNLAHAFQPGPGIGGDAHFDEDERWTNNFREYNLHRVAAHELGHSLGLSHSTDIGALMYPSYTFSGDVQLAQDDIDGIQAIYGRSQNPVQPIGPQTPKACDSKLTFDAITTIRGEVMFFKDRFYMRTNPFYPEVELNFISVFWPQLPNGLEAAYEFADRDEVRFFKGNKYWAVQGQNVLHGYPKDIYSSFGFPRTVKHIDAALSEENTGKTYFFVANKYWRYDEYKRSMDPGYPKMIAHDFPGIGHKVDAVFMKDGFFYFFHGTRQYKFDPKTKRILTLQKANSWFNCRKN
Cathepsin S, sequence (P25774 115-331, species assumed): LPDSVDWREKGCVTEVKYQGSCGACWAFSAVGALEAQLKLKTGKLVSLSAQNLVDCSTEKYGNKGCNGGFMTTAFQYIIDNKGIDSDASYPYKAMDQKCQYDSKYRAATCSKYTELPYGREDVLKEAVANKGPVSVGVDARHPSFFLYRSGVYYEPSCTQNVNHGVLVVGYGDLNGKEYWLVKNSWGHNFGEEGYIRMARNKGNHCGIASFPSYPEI
Cathepsin L, sequence (P07711 114-333, species assumed): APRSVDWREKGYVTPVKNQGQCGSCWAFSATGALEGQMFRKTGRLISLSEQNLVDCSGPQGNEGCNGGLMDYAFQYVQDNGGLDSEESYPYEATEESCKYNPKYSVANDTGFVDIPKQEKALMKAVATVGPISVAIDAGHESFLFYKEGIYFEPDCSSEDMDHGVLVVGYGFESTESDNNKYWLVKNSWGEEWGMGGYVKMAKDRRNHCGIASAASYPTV

## CC[C@H](C)[C@@H]1NC(=O)[C@@H]2CSSC[C@H](NC(=O)[C@H](CCCNC(=N)N)NC(=O)[C@@H]3CSSC[C@H](NC1=O)C(=O)N[C@@H]([C@@H](C)O)C(=O)N[C@@H](CCCNC(=N)N)C(=O)NCC(=O)N[C@@H](Cc1ccccc1)C(=O)N3)C(=O)N[C@@H](CC(C)C)C(=O)N[C@H]1CSSC[C@H](NC(=O)[C@H](C(C)C)NC(=O)CNC(=O)[C@H](CCCNC(=N)N)NC(=O)[C@H](CCCNC(=N)N)NC1=O)C(=O)N[C@@H](CCCNC(=N)N)C(=O)N2 [RTD-1, rhesus θ-defensin 1] (cyclo(GFCRCLCRRGVCRCICTR); disulfide 3-16, 5-14, 7-12)
DA-PIA-FLS
  effect on FLS proliferation: dose-dependently suppressed FLS proliferation
FLS
  cell viability in proliferation assay: ≥ 98%
[1]; 5 mg/kg s.c. daily for 11 days, 9 of 31 animals, saline 2.5% (1 of 40)
  complete resolution of disease (AS = 0), share of animals: 29%
[1]; 5 mg/kg s.c. daily for 11 days, DA rats with PIA, AS ≥ 3 at start, 6 independent experiments
  reduction of mean arthritis severity score (AS) at the end of the observation period compared with vehicle controls: 69%
[1]; 5 mg/kg s.c. daily, or once every 2, 3, or 5 days, n = 5 per group, single experiment
  disease resolution by dosing interval: equivalent disease resolution
[1]; RTD-1 s.c. (4 of 16), MTX 0.25 mg/kg i.p. q3d (1 of 22), etanercept 0.4 mg/kg s.c. q3d (0 of 21), saline 0 of 19, 2 independent experiments
  rate of complete disease resolution on day 11, comparison with RA drugs: 25%
[1]; daily s.c. 0.2 mg/kg
  therapeutic effect on AS compared to vehicle control: no therapeutic effect
[1]; daily s.c. 1 mg/kg
  reduction in AS compared to vehicle control: modest, but not statistically significant reductions in AS
[1]; daily s.c. 3 or 5 mg/kg, 2 independent experiments
  reduction in AS compared to vehicle control by treatment day 3: significant (P ≤ 0.0015) and similar reductions in AS
anti-RTD-1 Ig
  humoral response (anti-RTD-1 Ig) by dot immunoblot: No anti-RTD-1 Ig was detected
Joint IL-1β
  average reduction of joint IL-1β vs vehicle: 44%
MMP-13
  IC50: 11 ± 0.4 µM
MMP-2
  IC50: 19.6 ± 0.04 µM
MMP-14
  IC50: 7.8 ± 0.3 µM
MMP-1
  IC50: > 50 µM
MMP-8
  IC50: 12 ± 0.05 µM
MMP-9
  IC50: 11.1 ± 0.2 µM
MMP-3
  IC50: > 50 µM
Cathepsin C
  IC50: 3.7 ± 0.6 µM
Cathepsin B
  IC50: 1 ± 0.1 µM
Cathepsin V
  IC50: 1.8 ± 0.6 µM
Cathepsin S
  IC50: > 50 µM
Cathepsin K; IC50, substrate z-FR-AMC 10 μM, enzyme 0.77 nM, RTD-1 0-50 μg/ml
  IC50: 0.027 ± 0.02 µM
Cathepsin K; IC50 against cathepsin K, as quoted in running text from Table 1
  IC50: ~0.027 µM
Cathepsin H
  IC50: > 50 µM
Cathepsin L
  IC50: 1.4 ± 0.3 µM
